Laboratory results from US12680075B2, “Immune cells derived from induced pluripotent stem cell” (THE CHILDREN'S MEDICAL CENTER CORPORATION, priority 2016, dated 2026).

Experiments:
Format in all cases: cell-based, human
EZH2 and EZH1 = test: Total H3K27me3 protein levels in 5F cells treated with GSK126
Protocol: At 3 uM, protein levels of total H3K27me3 begins to decrease relative to DMSO control, indicating effective dose for EZH2 and EZH1 inhibition.
(§1) To dissect the importance of PRC2 in definitive hematopoietic potential, the inventors knocked down each component of PRC2 (2 shRNAs per gene) in 5F cells and assessed T cell differentiation. The inventors confirmed efficient knockdown by each shRNA (FIG. 3A). […] To validate this finding, the inventors used an […], GSK126, that has 150-fold higher selectivity for EZH2 over EZH1 (McCabe et al. 2012) (FIGS. 3G, 3I and 3J). […] To test the effect of EZH2 inhibition on T cell potential, the inventors generated definitive hemogenic endothelium (HE) from hPSCs with T lymphoid potential via inhibition of Activin/Nodal signaling at the early stage of mesoderm differentiation (Kennedy et al. 2012).

[1] = system: CD34+ d9 hemogenic endothelial (HE) cells; test: T cell potential of CD34+ d9 hemogenic endothelial cells treated with GSK126; conditions: 3 uM GSK126 vs DMSO-treated cells
From the text: as §1

5F cells = test: Colony-forming assays of 5F cells treated with GSK126; conditions: 3 uM GSK126
Protocol: Colony assays. After 14 days of respecification, 5×10^4 cells were plated into 3 ml of complete methylcellulose H3434 (StemCell Technologies) supplemented with 10 ng/ml IL6 (Peprotech), 10 ng/ml FLT3 (R&D), and 50 ng/ml TPO (R&D). The mixture was distributed into two 60 mm dishes and maintained in a humidified chamber for 14 days.
as §1

With `CC[C@H](C)n1cc(C)c2c(C(=O)NCc3c(C)cc(C)[nH]c3=O)cc(-c3ccc(N4CCNCC4)nc3)cc21` [GSK126] as the molecule, how does the “global H3K27me3” value (EZH2 and EZH1; 3 uM GSK126, 5F cells) read?
Its value is “markedly reduced”.

And the “concentration at which total H3K27me3 begins to decrease relative to DMSO control (effective dose for EZH2 and EZH1 inhibition)” value (EZH2 and EZH1; 5F cells)?
Its value is 3 µM.

What about the “EZH2 and EZH1 enzymatic activity as monitored by total protein levels of H3K27me3” value (EZH2 and EZH1; increasing concentration of GSK126, 5F cells) of the same molecule?
Its value is “dose-dependent decrease”.

What about the “CD4+CD8+ T cell population” value [1] of the same molecule?
Its value is “abrogated”.

And the “toxicity as assessed by colony-forming assays” value (5F cells)?
The value was “partial toxicity”.
